The nature of data set [1]: Photostability under irradiation with 250 watt sun lamp. It is filed as physicochemical. On the procedure: In addition, experiments were conducted in order to determine the photostability of the product of Example I. A solution was prepared by mixing 0.1 g of the product with 50 ml of dichloromethane solvent. The solution was placed in a 100 ml round bottom flask and irradiated with light from a sun lamp (250 watts at a distance of approximately 8 inches from the flask). […] However, another solution was made by combining 0.1 g of product in 250 ml of CH3 OH and 10 ml of CH2 Cl2. Addition of the CH2 Cl2 was undertaken to obtain complete dissolution. The solution was placed in a […] and irradiated as described above. […] Thus, the use of different solvents will cause a variation in both the character and duration of fluorescence.
In addition, a further test was conducted in order to determine the photostability of the product. Specifically, 2.0 mg of the product in a 100 ml round bottom flask was dissolved in 50 ml of H2 O. The solution was then irradiated by light from a 250 watt sun lamp placed approximately 8 inches from the flask. UV spectral data was recorded periodically as shown below in Table III.

For data set [2] the following is noted: cited from earlier work.
A short description of data set [3]: Fluorescence (λf, quantum yield). Conditions: for λf: 2 × 10^-4 M in ethanol; for .PHI.f (fluorescence quantum yield): ethanol, excitation 450 and 460 nm, reference acridine orange. It is filed as physicochemical. The method, then:
Instruments for spectroscopic measurements included: Perkin-Elmer 1600 FTIR, Varian Gernini 300 NMR, Hewlett-Packard 5985 (70 eV) GC-MS, Cary 17 (UV), and Perkin-Elmer LS-5B Luminescence spectrometer. A dye laser was constructed and operated in the non-flowing (static) mode and had no tuning capability. […] Laser energy outputs were measured with an accuracy of ±5% by a Scientech 365 power and energy meter.
(§1) Light absorption, luminescence, and laser activity properties for the dyes 7 are described in Table VI. Each recorded UV absorption was restricted to the highest wave length. Fluorescence quantum yields of the dyes were determined for ethanol solutions with excitation at 450 and 460 nm by reference to acridine orange, .PHI.0.46, in ethanol; for the dye 7p the reference was R-6G, <P 0.90. Melting points were obtained from a Mel-Temp II device and were uncorrected. The solvent for ^1 H NMR spectra was chloroform-d with tetramethylsilane as an internal standard. Elemental analyses were obtained from Midwest Micro Lab, Indianapolis, Ind. and Galbraith Laboratories, Inc., Knoxville, Tenn. Solvents were removed by rotary evaporation under reduced pressure unless indicated otherwise. Column chromatography was performed on silica gel. Molecular weights were confirmed by EI-MS for the pyrrole 4j 193 and for laser dyes 7d 346, 7e 374, 7g 374, 7i 342, 7j 314 and 7x 360. IR absorption data satisfactorily supported structure assignments for the laser dyes 7.
^[b] 2 × 10^-4 M in ethanol except where noted otherwise.

The nature of data set [4]: Solubility/fluorescence in various solvents (Tables I, II). It is filed as physicochemical. On the procedure:
In addition, tests were conducted on the product in order to determine its solubility/fluorescence in various solvents. One property of the compositions described herein involves a variable degree of solubility/fluorescence relative to the solvents with which they are combined. Data showing a variety of different solvents combined with the product of Example I is presented below in Table I:
As in Example I, tests were conducted on the product in Example II in order to determine its fluorescence in various solvents. Data showing a variety of different solvents combined with the product of Example II is presented below in Table II: […]

Data set [5] can be described thus: Laser characteristics of pyrromethene-BF2 complexes under flashlamp excitation (Table IV). Particulars: for Life: DMA/MeOH.
For data set [6] the following is noted: Ref [2], cited from earlier work; for λmax: 5 × 10^-6 M in ethanol.
Data set [7] in a line: P-BF2 dyes dispersed in acrylic co-polymer (solid-state laser). The source says:
Any laser dye of the present invention may be substituted for the dye in any of the examples of that incorporated patent. The matrix generally includes solid polymeric host laser rods prepared using bulk polymerization of acrylic acid ester comonomers.

A short description of data set [8]: UV light absorption (λmax, log ε). The class given is physicochemical. Particulars: for λmax: 5 × 10^-6 M in ethanol; for absorption shift: in comparison with 8-substituted peralkylated structures (7b, g, k); for log ε: solvent as for λmax (ethanol except where noted). The method, then: as §1, with “Each” for “Light absorption, luminescence, and laser activity properties for the dyes 7 are described in Table VI. Each”, “0.90. […]” for “0.90.”, “gel.” for “gel. Molecular weights were confirmed by EI-MS for the pyrrole 4j 193 and for laser dyes 7d 346, 7e 374, 7g 374, 7i 342, 7j 314 and 7x 360. IR absorption data satisfactorily supported structure assignments for the laser dyes 7.”
5 × 10^-6 M in ethanol except where noted otherwise.

Data set [9] can be described thus: Photostability in methanol under flashlamp excitation pulses.
The mark [10] stands for this setting: 2 × 10^-4 M in ethanol, Ref [2].

Read-outs that look alike come from different tables or passages of the source.

On to `CC1=CC(C)=[N+]2C1=C(C)c1c(C)cc(C)n1[B-]2(F)F` [Compound 7a, 4,4-difluoro-1,3,5,7,8-pentamethyl-4-bora-3a,4a-diaza-s-indacene], for which the “visual change in fluorescence (photostability)” value in [1] (0.1 g in 50 ml dichloromethane, sun lamp, 22 days) is reported as “No visual change in fluorescence was observed”. In addition, the “fluorescence after irradiation (photostability)” value in data set [1] (0.1 g in 250 ml CH3 OH and 10 ml CH2 Cl2, sun lamp, 8 days) is reported as “no fluorescence was observed”. Moreover, the λf in data set [2] (setting [10]) was 519 nm. Moreover, the “.PHI.f” value in [2] (Ref [2]) is recorded as 0.99. Besides, the “wavelength of incident light that produced the greatest fluorescence” value in data set [3] (FIG. 2, in ethanol) is listed as 500-550 nm. In [4] ((CF3)2 CHOH), the “Color of Fluorescence, Room light” value was “green”; the “Color of Fluorescence, UV” value is recorded as “green”; the “Color of Solution” value is listed as “yellow”; the Solubility result is recorded as “soluble”. In addition, in data set [4] (CClF2 --CFCl2), the “Color of Fluorescence, Room light” value is “green”; the “Color of Fluorescence, UV” value is “green”; the “Color of Solution” value is “yellow”. The “Color of Solution” value in data set [4] (CF3 CH2 OH) is “green”. The Solubility result in data set [4] (CH2 Cl2) is “soluble”. Also, the Solubility entry in data set [4] (H2 O) is listed as “insoluble”. The molecule also displayed a Life in [5] of approximately 50 kJ/L. Further, in data set [6], the λmax is 493 nm and the “log ε” value is listed as 4.90.

As for `CC1=C(C)C(C)=[N+]2C1=C(C)c1c(C)c(C)c(C)n1[B-]2(F)F` [Compound 7b], in data set [2] (setting [10]), the λf is listed as 546 nm. Besides, the “.PHI.f” value in data set [2] (Ref [2]) is 0.70. In data set [6], the λmax is on record as 518 nm and the “log ε” value is 4.67.

Regarding `CCC1=C(C)C2=C(C)c3c(C)c(CC)c(C)n3[B-](F)(F)[N+]2=C1C` [Compound 7c, 1,3,5,7,8-pentamethyl-2,6-diethylpyrromethene-BF2 complex], the λf in data set [2] (setting [10]) is 546 nm. Also, the “.PHI.f” value in [2] (Ref [2]) is recorded as 0.83. For the same molecule, the “solubility in the polymer matrix” value in data set [7] was “particularly soluble”. For the same molecule, in data set [6], the λmax is recorded as 517 nm and the “log ε” value was 4.81.

In the case of `CC1=C(C(C)(C)C)C(C)=[N+]2C1=Cc1c(C)c(C(C)(C)C)c(C)n1[B-]2(F)F` [Compound 7x, 1,3,5,7-tetramethyl-2,6-di-tert-butylpyrromethene-BF2 complex], in data set [3], the “fluorescence” value was “erratic effect on fluorescence”, the λf was 554 nm and the “.PHI.f (fluorescence quantum yield)” value is on record as 0.84. Also, in [8], the λmax is 527 nm, the “absorption shift” value is given as “slight bathochromic shift in absorption” and the “log ε” value is given as 4.93.

`CCC1=C(CC)C(C)=[N+]2C1=Cc1c(CC)c(CC)c(C)n1[B-]2(F)F` [Compound 7y, 1,2,6,7-tetraethyl-3,5-dimethylpyrromethene-BF2 complex]: in [3], the “fluorescence” value is on record as “erratic effect on fluorescence”, the λf came to 554 nm and the “.PHI.f (fluorescence quantum yield)” value turned out to be 0.70. In [8], the λmax is given as 529 nm, the “absorption shift” value is “slight bathochromic shift in absorption” and the “log ε” value is recorded as 4.89.

As for `CC1=C(C)C(C)=[N+]2C1=Cc1c(C)c(C)c(C)n1[B-]2(F)F` [Compound 7z, 1,2,3,5,6,7-hexamethylpyrromethene-BF2 complex], in data set [3], the “fluorescence” value was “erratic effect on fluorescence”, the λf was 552 nm and the “.PHI.f (fluorescence quantum yield)” value is 0.56. In data set [8], the λmax amounted to 528 nm, the “absorption shift” value is listed as “slight bathochromic shift in absorption” and the “log ε” value was 4.84.

Consider `CCN=c1cc2oc3cc(NCC)c(C)cc3c(-c3ccccc3C(=O)OCC)c-2cc1C` [Compound R-6G, reference compound], for which, in data set [9], the photostability in methanol was found to be 1500 pulses. In [2] (reference standard), the “fluorescence quantum yield of reference” value is 0.90.

With `CCC1=C2C(C)=CC(C)=[N+]2[B-](F)(F)n2c(C)cc(C)c21` [III, 4,4-difluoro-1,3,5,7-tetramethyl-8-ethyl-4-bora-3a,4a-diaza-s-indacene], the “Eo after 1000 S at 25 J” value in data set [5] (footnote to Life, after 1000 S at 25 J) was ~ 80 mJ.

As for `CCN=c1cc2oc3cc(NCC)c(C)cc3c(-c3ccccc3C(=O)OCC)c-2cc1C` [Rhodamine 590, reference compound], the Life in [5] turned out to be 15 kJ/L.

Take `c1ccc2cc3ccccc3cc2c1` [anthracene, reference compound]: the λf in data set [2] (literature) was 400 nm.

Source of the values: patent publication US5446157A, “Boron difluoride compounds useful in photodynamic therapy and production of laser light” (priority 1993, dated 1995).
